Patent US9447157B2, “Nitration shielding peptides and methods of use thereof” (Augusta University Research Institute, Inc., priority 2013, dated 2016)
Residue numbers refer to the chain shown, from its start.

Key:
PKG-1α [1] = target: T1, PKG-1α (Homo sapiens, UniProt Q13976); test: [3H]cGMP dissociation/exchange assay; type: binding; conditions: SIN-1 500 μM 30 min
T1 construct: transfected with an expression plasmid containing a full length WT-PKG-1α cDNA; made in house; host or cells: HEK-293T (methods); the results paragraph b527 says PASMC
T1 sequence (Q13976 2-671): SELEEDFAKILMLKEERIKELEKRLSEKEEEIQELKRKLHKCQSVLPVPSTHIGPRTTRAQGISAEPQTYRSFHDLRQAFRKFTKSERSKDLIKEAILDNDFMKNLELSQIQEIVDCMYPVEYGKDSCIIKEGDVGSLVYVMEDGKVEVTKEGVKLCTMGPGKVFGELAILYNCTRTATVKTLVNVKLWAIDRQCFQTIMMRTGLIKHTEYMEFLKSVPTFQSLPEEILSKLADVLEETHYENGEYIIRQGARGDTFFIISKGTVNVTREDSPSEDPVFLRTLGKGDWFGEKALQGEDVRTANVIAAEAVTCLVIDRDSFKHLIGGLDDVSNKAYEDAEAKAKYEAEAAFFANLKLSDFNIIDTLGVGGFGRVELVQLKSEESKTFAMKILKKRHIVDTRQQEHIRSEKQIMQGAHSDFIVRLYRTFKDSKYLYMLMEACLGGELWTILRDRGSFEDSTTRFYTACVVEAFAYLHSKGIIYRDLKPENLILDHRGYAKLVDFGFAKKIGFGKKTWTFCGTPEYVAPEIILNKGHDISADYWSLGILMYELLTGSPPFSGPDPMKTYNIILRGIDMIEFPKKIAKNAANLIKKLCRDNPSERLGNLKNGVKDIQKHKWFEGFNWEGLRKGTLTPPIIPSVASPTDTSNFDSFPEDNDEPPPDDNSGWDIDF
Description: (§1) WT- and Y247F-PKG-1α were immunopurified, as described above then incubated for 60 min at room temperature with 3 ml of cGMP-binding assay mixture containing 3 μM [^3H]cGMP. This incubation time and dose has been previously experimentally determined to be adequate for the saturation of the cGMP-binding sites in PKG. After incubation, the samples were cooled to 4° C. and divided into 200 μl aliquots per tube. The addition of 100-fold excess unlabeled cGMP at time 0 sec (Bo) initiated the dissociation (exchange) of the bound [^3H]cGMP. The cGMP exchange in each tube was stopped at the appropriate time point by the addition of 2 ml of cold aqueous saturated (NH4)2SO4. The samples were filtered, washed, and the portion of bound [^3H]cGMP at any time point was determined, as described previously.

PKG-1α [2] = target: T2, PKG-1α (Homo sapiens, UniProt Q13976, Y247F); test: [3H]cGMP dissociation/exchange assay; type: binding; conditions: SIN-1 500 μM 30 min
T2 sequence (Q13976 2-671 Y247F): T1 sequence (Q13976 2-671) with Y246F
Description: as §1

PKG-1α [3] = target: T1, PKG-1α; test: PKG protein levels and PKG activity in transfected PASMC; type: cell-based; conditions: PASMC transfected with WT-PKG-1α, SIN-1 500 μM 48 h
Description: Therefore, the effect of these events were investigated in PASMC transiently transfected with expression plasmids containing WT- and Y247F-PKG-1α. The effect of nitration on pulmonary arterial smooth muscle cell (PASMC) growth and metabolism was determined. PASMC were transiently transfected with expression plasmids containing WT-PKG-1α, Y247F-PKG-1α or pDEST40 (as a control) for 20 h. Cells were then exposed or not to SIN-1 (500 μM, 48 h) and the effect on PKG protein levels (FIG. 17A) and activity determined (FIG. 17B).
Cells were prepared as previously described (Sud, N., et al., American Journal of Physiology 293, L1444-1453 (2007); Sharma, S., et al., American Journal of Physiology 294, L46-56 (2008)). Briefly, the cellular protein extracts were prepared by homogenizing the cells in lysis buffer (50 mM Tris-HCl, pH 7.6, 0.5% Triton X-100, and 20% glycerol) containing Halt protease inhibitor cocktail (Pierce, Rockford, Ill.). The extracts were then clarified by centrifugation (20,000 g for 20 min at 4° C.). […] Reactive bands were visualized using chemi-luminescence (Pierce Laboratories, Rockford, Ill.) on a Kodak 440CF image station. The band intensity was quantified using Kodak 1D image processing software. […]
Measurement of PKG Catalytic Activity Total PKG activity was determined using a non-radioactive immunoassay in cell lysates, according to the manufacturer's directions. […]

[3H]cGMP exchange/dissociation from WT-PKG-1α (PKG-1α [1]): enhanced
[3H]cGMP exchange/dissociation from Y247F mutant (PKG-1α [2]): but not from the Y247F mutant
cGMP dependent increase in PKG activity, WT-PKG-1α cells (PKG-1α [3]): attenuated
Substance: 3-morpholinosydnonimine N-ethylcarbamide [SIN-1]
